From patent US20180280480A1, “COMPOSITIONS AND PEPTIDES HAVING DUAL GLP-1R AND GLP-2R AGONIST ACTIVITY” (priority 2014, published 2018)
Marks after values point to notes of the source that are not given here.

Legend:
Assay type in all cases: in vivo
[1] = system: C57BL/6J mice; assay: Acute food intake in C57BL/6J mice; settings: for Total food intake (g/animal): Day 0: 0-[…] (lights off), mean ± SEM
Method: The C57BL/6J mice arrived 7 days prior to the initiation of the study. During these days, animals were handled daily to accustom them to the experimental paradigm. At Day −1, the mice were randomised according to body weight to participate in one of following drug treatment groups (n=6-8 in each group): Group 1: vehicle. […] Group 3-5: SEQ ID NO 3; 3.0; 1.0; 0.3 mg/kg. Group 6-8: SEQ ID NO 4; 3.0; 1.0; 0.3 mg/kg. Group 9-11: SEQ ID NO 5; 3.0; 1.0; 0.3 mg/kg. Group 12-14: SEQ ID NO 6; 3.0; 1.0; 0.3 mg/kg. Group 15-17: SEQ ID NO 7; 3.0; 1.0; 0.3 mg/kg. Three days prior to initiation of dosing, all animals were handled daily and accustomed to the experimental conditions by subcutaneous mock injections (i.e. nipping the skin of the back). Baseline food intake was monitored four days prior to the study. Mice were randomized according to body weight on Day −1. Animals were subjected to two separate injections. First acute dose was administered prior to lights out at Day 0 and food intake was monitored 24 hours post dosing. On Day 3, mice were re-randomised into new treatment groups and dosed prior to lights out. Food intake was monitored 24 hours post dosing. Body weight was measured daily from Day −5 and throughout the study. The study was terminated on Day 5. […] Dosing took place prior to lights out in the afternoon (between 13.30 and 14.00). Doses were administered subcutaneously (dose volume 5 ml/kg). Food intake data was collected using the HM-2 system, an online computerized feeding system using digital weighing cells. Food intake and body weight were measured from Day −7 and throughout the study. […]

[2] = system: C57BL/6J mice; assay: GLP1R-GLP2R dual agonist compound study: cumulative food intake
Text: Forty (40, n=10, 4 groups) male C57BL/6J mice obtained from Taconic, Denmark, were used. At the time of the experiment, the mice had reached an age of 9-10 weeks. The mice were acclimatized for one week in their new environment and offered regular chow diet (Altromin 1324, Brogaarden A/S, Denmark) and domestic quality tap water. Animals were housed two per cage during the study, in a light-, temperature-, and humidity-controlled room (12-hour light: 12-hour dark cycle, lights on/off at 4 AM/4 PM hour; 22±1° C.; 50±10% relative humidity). […] Animals were uniquely identified with implantable microchips (Pet ID Microchip, E-vet) in all mice upon arrival. Animals were identified using the WS-2 weight station (MBrose ApS, Faaborg, Denmark) connected to a laptop running the HM02Lab software (Ellegaard Systems, Faaborg, Denmark). The HM02Lab software matches the body weight with ID and calculates the dose directly based on the body weight. All mice were handled for 3 days prior to the experiment to acclimatize the animals to handling and injections.

[3] = system: C57BL/6J mice; assay: GLP1R-GLP2R dual agonist compound study: gut wet weight
Text: On study day 8, the mice were terminated and the GI tract was removed for determination of the gut wet weight. The gut wet weight results are listed below in Table 12.

[4] = system: Diet Induced Obese (DIO) Sprague-Dawley Rats; assay: Body weight and whole body fat mass in DIO Sprague-Dawley rats; settings: for Body weight: mean ± S.E.M.; for Whole body fat mass: EchoMRI
Method: (§1) Thirty (30) male Sprague-Dawley rats (7 weeks of age) were purchased from Taconic (Denmark) and transferred to the Gubra animal unit. During the acclimatization period, the rats were housed two per cage under a 12:12 light dark cycle (lights on from 04.00-16.00 h) at controlled temperature conditions (22±1° C.; 50±10% relative humidity). Throughout the study the rats had ad libitum access to a two choice diet—regular Altromin 1324 rodent chow (Brogaarden, Denmark) and a paste made from Chocolate spread (Nutella, Ferrero Italy), peanut butter and powdered regular Altromin 1324 rodent chow (Brogaarden, Denmark). The animals were kept on the diet for 65 weeks before experimentation. Animals were switched to single housing during the entire study period (day −6 to 25).
The animals were randomized into three study groups (n=10 per group) based on body weight recorded on day −1 to participate in one of the following groups: Group 1: Vehicle, SC, BID. Group 2: SEQ ID NO 6, 82 nmol/kg (day 2-7), 164 nmol/kg (day 8-14) and 328 nmol/kg (day 15-25), SC, BID. […] Dosing took place in the morning (between 06.00 and 08.00 h) and prior to lights out in the afternoon (between 13.30 and 14.00 h). Doses were administered subcutaneously with a dose volume 1 ml/kg. All rats were handled prior to experimentation to acclimatize the animals to handling and procedures. Body weight was measured from day −3 to termination on day 25. Total body fat mass was analyzed before study start (day −1) and before termination (study day 25) by non-invasive EchoMRI-900 (EchoMRI, USA). On day 23 of the study, rats were subjected to an oral glucose tolerance test (OGTT). Animals were mildly fasted as all food was removed 4 hours prior to the oral glucose load. Vehicle and compounds were administered subcutaneously (SC) 2 hours prior to the OGTT. At t=0 rats received an oral glucose load (2 g/kg; 4 ml/kg; […], Fresenius Kabi, Sweden). Glucose was given as gavage via a gastrically-placed tube connected to a syringe ensuring accurate dosing. Blood glucose was measured from tail vein blood before (t=−120 and 0 min, baseline) and after glucose administration (t=15, 30, 60 and 120 min). Blood samples was collected into 10 μl heparinized glass capillary tubes and immediately suspended in buffer (0.5 ml of glucose/lactate system solution (EKF-diagnostics, Germany) and analyzed for glucose on the test day using a BIOSEN c-Line glucose meter (EKF-diagnostics, Germany) according to manufacturer's instructions. On study day 25, the rats were terminated and the GI tract was removed. Intestines were flushed with saline, weighed and then fixated in 4% PFA for determination of small and large intestinal volume by stereological methods as described by Hansen et al. 2013, Am J Transl Res 5(3): 347-58).

[5] = system: Diet Induced Obese (DIO) Sprague-Dawley Rats; assay: Oral glucose tolerance test in DIO Sprague-Dawley rats
[6] = system: Diet Induced Obese (DIO) Sprague-Dawley Rats; assay: Small and large intestinal volume (stereology) in DIO Sprague-Dawley rats
Method: as §1
The animals were randomized into three study groups (n=10 per group) based on body weight recorded on day −1 to participate in one of the following groups: Group 1: Vehicle, SC, BID. Group 2: SEQ ID NO 6, 82 nmol/kg (day 2-7), 164 nmol/kg (day 8-14) and 328 nmol/kg (day 15-25), SC, BID. […] Body weight was measured from day −3 to termination on day 25. Total body fat mass was analyzed before study start (day −1) and before termination (study day 25) by non-invasive EchoMRI-900 (EchoMRI, USA). […] Blood glucose was measured from tail vein blood before (t=−120 and 0 min, baseline) and after glucose administration (t=15, 30, 60 and 120 min). Blood samples was collected into 10 μl heparinized glass capillary tubes and immediately suspended in buffer (0.5 ml of glucose/lactate system solution (EKF-diagnostics, Germany) and analyzed for glucose on the test day using a BIOSEN c-Line glucose meter (EKF-diagnostics, Germany) according to manufacturer's instructions. On study day 25, the rats were terminated and the GI tract was removed. Intestines were flushed with saline, weighed and then fixated in 4% PFA for determination of small and large intestinal volume by stereological methods as described by Hansen et al. 2013, Am J Transl Res 5(3): 347-58).

[7] = Day 25, 328 nmol/kg (escalated 82, 164, 328 nmol/kg SC BID)
[8] = Day 25, 328 nmol/kg, mean ± S.E.M.

Q: Which results are given for “R^1-HGDGSFTSELSTYLDALAARDFIAWLIQTKITDR^2 [SEQ ID NO 6]”?
A: Total food intake (g/animal) ([1]; single SC dose 0.3 mg/kg): 0.33 ± 0.17 g/animal; Total food intake (g/animal) ([1]; single SC dose 1 mg/kg): 0.13 ± 0.08 g/animal; Total food intake (g/animal) ([1]; single SC dose 3 mg/kg): 0.06 ± 0.03 g/animal; ranking as inhibitor of food intake after […] ([1]; among SEQ ID NO 3-7, Table 4): most effective inhibitor of food intake; food intake after […] compared to vehicle ([1]; single dose 0.3-3 mg/kg): significantly reduced food intake; Cumulative food intake ([2]; Day 0-7, 3.0 mg/kg BID SC, mean ± S.E.M.): 21.96 ± 1.46 g; cumulative food intake compared to vehicle and teduglutide ([2]; dosed twice daily for 7 days): considerably reduced cumulative food intake; Gut wet weight ([3]; Day 8, 3.0 mg/kg BID SC, mean ± S.E.M.): 3.8 ± 0.3 g; gut wet weight compared to vehicle and teduglutide ([3]; dosed twice daily for 8 days): significantly increased the gut wet weight; Body weight ([4]; Day 0 (baseline), 328 nmol/kg group (escalated 82, 164, 328 nmol/kg SC BID)): 962.7 ± 27.8 g; Whole body fat mass [4, 7]: 292.2 ± 25.4 g; Body weight [4, 7]: 803.9 ± 35.5 g; Whole body fat mass ([4]; Day −1 (baseline), 328 nmol/kg group (escalated 82, 164, 328 nmol/kg SC BID)): 400.3 ± 18.3 g; effect on glucose tolerance ([5]; DIO rats, Table 15): improved glucose tolerance; Blood glucose during an oral glucose tolerance test. Area under the curve (AUC) −45 to 240 min. ([5]; Day 23, 328 nmol/kg, mean ± S.E.M.): 1731 ± 77.0 mmol·min/L; Large intestine volume [6, 8]: 2.64 ± 0.17 cm^3; Small intestine volume [6, 8]: 8.50 ± 0.62*** cm^3; effect on small intestine volume ([6]; treatment for 25 days, stereology): striking increase in small intestine volume
